Earlier results in patent US20070148722A1, “Method for determining the concentration of thrombin inhibitors” (priority 1999, published 2007).

Molecular target: meizothrombin (Homo sapiens, UniProt P00734)
Details: theoretical background statement; affinity to atypical intermediate meizothrombin

In the case of hirudin, the Ki is given as over 0.1 nM.
